Test [1] deals with T1, human bradykinin 1 receptor (B1R) (Homo sapiens, UniProt P46663).
T1 construct: expressed in transfected cells; host or cells: CHO K1 cells
T1 sequence (P46663 1-353): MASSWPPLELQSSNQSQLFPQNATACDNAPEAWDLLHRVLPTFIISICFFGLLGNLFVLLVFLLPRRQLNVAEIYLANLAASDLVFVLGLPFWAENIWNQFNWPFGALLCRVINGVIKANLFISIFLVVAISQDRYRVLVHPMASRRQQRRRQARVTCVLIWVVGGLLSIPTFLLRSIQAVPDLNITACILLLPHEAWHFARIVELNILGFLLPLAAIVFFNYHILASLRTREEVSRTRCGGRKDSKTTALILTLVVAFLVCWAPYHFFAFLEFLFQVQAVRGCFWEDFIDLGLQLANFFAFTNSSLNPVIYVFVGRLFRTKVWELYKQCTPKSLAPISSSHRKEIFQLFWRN
Description: Functional investigation on the human bradykinin 1 receptor (B1R), Ca2+ FLIPR assay in CHO K1 hB1R cells. It counts as cell-based. The settings on record: CHO-K1, B1R antagonism human; test substance 10 μM; Ca2+ FLIPR, CHO K1 hB1R cells; read-out: B1R Ant. h [10 μM] % Inhibition. The method, boiled down:
(§1)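 Fluo-4 Ca2+ readout, peak fluorescence. Stable CHO K1 transfectants; compound pre-incubated 10-20 min, then EC80 agonist—Lys-Des-Arg9-BK for hB1R, Des-Arg9-BK for rB1R. % inhibition vs maximal inhibition; IC50 from multiple concentrations, duplicate/triplicate, ≥2 independent runs.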

Test [2] deals with T2, bradykinin 1 receptor (B1R) of the rat (Rattus norvegicus, UniProt P97583).
T2 construct: expressed in transfected cells; host or cells: CHO K1 cells
T2 sequence (P97583 1-337): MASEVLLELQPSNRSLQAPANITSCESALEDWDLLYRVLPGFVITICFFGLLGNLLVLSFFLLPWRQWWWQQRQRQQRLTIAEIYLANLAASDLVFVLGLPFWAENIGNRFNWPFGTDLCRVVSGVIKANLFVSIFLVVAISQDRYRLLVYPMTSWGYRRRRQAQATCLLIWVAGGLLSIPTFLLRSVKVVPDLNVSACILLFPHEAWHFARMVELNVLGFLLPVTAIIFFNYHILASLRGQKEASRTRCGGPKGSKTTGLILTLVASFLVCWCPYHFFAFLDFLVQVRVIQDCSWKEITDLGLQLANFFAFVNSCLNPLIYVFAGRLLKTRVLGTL
Description: Functional investigation on the rat bradykinin 1 receptor (B1R), Ca2+ FLIPR assay in CHO K1 rB1R cells. Format: cell-based. The settings on record: CHO-K1, B1R antagonism rat; test substance 10 μM; Ca2+ FLIPR, CHO K1 rB1R cells; read-out: B1R Ant. r [10 μM] % Inhibition. The method, boiled down:
as §1

Structures are written as SMILES.

In the case of `CN(C)C(c1cccc(F)c1)C1CCC(CNC(=O)COC2CCN(S(=O)(=O)c3cccc(C(F)(F)F)c3)C2)CC1` (stereo not drawn) [Example 170, N-((4-((dimethylamino)(3-fluorophenyl)methyl)cyclohexyl)methyl)-2-(1-(3-(trifluoromethyl)phenylsulfonyl)pyrrolidin-3-yloxy)acetamide], the inhibition (in general, the drop in the measured response relative to a control, in per cent) at 10 µM in test [1] was found to be 8%; in test [2], 38%.
For the molecule `Cc1cc(C)c(S(=O)(=O)N2CCC(OCC(=O)NC3CCC(C(c4cccs4)N(C)C)CC3)C2)c(C)c1` (stereo not drawn) [Example 12, N-(4-((dimethylamino)(thiophen-2-yl)methyl)cyclohexyl)-2-(1-(mesitylsulfonyl)pyrrolidin-3-yloxy)acetamide], the inhibition at 10 µM in test [1] turned out to be 41%; in test [2], 30%.
The matching figures for `CN(C)C(c1cccc(F)c1)C1CCC(CNC(=O)COCCN(C)S(=O)(=O)c2ccc(Cl)cc2)CC1` (stereo not drawn) [Example 158, 2-(2-(4-chloro-N-methylphenylsulfonamido)ethoxy)-N-((4-((dimethylamino)(3-fluorophenyl)methyl)cyclohexyl)methyl)acetamide]: 20% and 5%.
The matching figures for `CN(C)C(c1cccs1)C1CCC(NC(=O)COCCN(Cc2ccccc2)S(=O)(=O)c2ccccc2)CC1` (stereo not drawn) [Example 161, 2-(2-(N-benzylphenylsulfonamido)ethoxy)-N-(4-((dimethylamino)(thiophen-2-yl)methyl)cyclohexyl)acetamide]: 1% and 3%.
On the same counts, the results for `CN(C)C(c1ccccc1)C1CCC(CNC(=O)COCCN(Cc2ccccc2)S(=O)(=O)c2ccccc2)CC1` (stereo not drawn) [Example 15, 2-(2-(N-benzylphenylsulfonamido)ethoxy)-N-((4-((dimethylamino)(phenyl)methyl)cyclohexyl)methyl)acetamide] are 11% and -18%.
As to `Cc1ccc(S(=O)(=O)N2CCC(OCC(=O)NCC3CCC(C(c4cccc(F)c4)N(C)C)CC3)C2)cc1` (stereo not drawn) [Example 185, N-((4-((dimethylamino)(3-fluorophenyl)methyl)cyclohexyl)methyl)-2-(1-tosylpyrrolidin-3-yloxy)acetamide], the figures for the inhibition at 10 µM in test [1] and in test [2] were 9% and 28%, respectively.
The matching figures for `CN(C)C(c1ccccc1)C1CCC(CNC(=O)COCC2CCCCN2S(=O)(=O)c2ccc(Cl)c(Cl)c2)CC1` (stereo not drawn) [Example 17, 2-((1-(3,4-dichlorophenylsulfonyl)piperidin-2-yl)methoxy)-N-((4-((dimethylamino)(phenyl)methyl)cyclohexyl)methyl)acetamide]: 81% and 22%.
As to `CN(C)C(c1cccs1)C1CCC(CNC(=O)COC2CCN(S(=O)(=O)c3cccc(C(F)(F)F)c3)C2)CC1` (stereo not drawn) [Example 25, N-((4-((dimethylamino)(thiophen-2-yl)methyl)cyclohexyl)methyl)-2-(1-(3-(trifluoromethyl)phenylsulfonyl)pyrrolidin-3-yloxy)acetamide], the inhibition at 10 µM in test [1] was -6%; in test [2] it was 30%.
Take `COc1ccc(S(=O)(=O)N2CCCC2COCC(=O)NC2CCC(C(c3cccs3)N(C)C)CC2)cc1` (stereo not drawn) [Example 162, N-(4-((dimethylamino)(thiophen-2-yl)methyl)cyclohexyl)-2-((1-(4-methoxyphenylsulfonyl)pyrrolidin-2-yl)methoxy)acetamide]: the inhibition at 10 µM in test [1] was -5%; in test [2], 21%.
The matching figures for `COc1cc(C)c(S(=O)(=O)N(C)CCOCC(=O)NCCC2CCC(C(c3cccc(F)c3)N(C)C)CC2)c(C)c1` (stereo not drawn) [Example 197, N-(2-(4-((dimethylamino)(3-fluorophenyl)methyl)cyclohexyl)ethyl)-2-(2-(4-methoxy-N,2,6-trimethylphenylsulfonamido)ethoxy)acetamide]: 104% and 105%.
The matching figures for `CN(C)C(c1ccccc1)C1CCC(CNC(=O)COCCN(C)S(=O)(=O)c2c(Cl)cc(Cl)cc2Cl)CC1` (stereo not drawn) [Example 14, N-((4-((dimethylamino)(phenyl)methyl)cyclohexyl)methyl)-2-(2-(2,4,6-trichloro-N-methylphenylsulfonamido)ethoxy)acetamide]: 104% and 40%.
As to `CN(C)C(c1cccc(F)c1)C1CCC(CCNC(=O)COCCN(C)S(=O)(=O)c2c(Cl)cc(Cl)cc2Cl)CC1` (stereo not drawn) [Example 174, N-(2-(4-((dimethylamino)(3-fluorophenyl)methyl)cyclohexyl)ethyl)-2-(2-(2,4,6-trichloro-N-methylphenylsulfonamido)ethoxy)acetamide], the inhibition at 10 µM in test [1] stood at 103%; in test [2], 44%.
Turning to `CN(C)C(c1cccs1)C1CCC(CCNC(=O)COCCN(C)S(=O)(=O)c2cccc(C(F)(F)F)c2)CC1` (stereo not drawn) [Example 32, N-(2-(4-((dimethylamino)(thiophen-2-yl)methyl)cyclohexyl)ethyl)-2-(2-(N-methyl-3-(trifluoromethyl)phenylsulfonamido)ethoxy)acetamide], the figures for the inhibition at 10 µM in test [1] and in test [2] were 32% and 14%, respectively.
With `COc1ccc(S(=O)(=O)N2CCCCC2COCC(=O)NCC2CCC(C(c3cccc(F)c3)N(C)C)CC2)c(OC)c1` (stereo not drawn) [Example 151, 2-((1-(2,4-dimethoxyphenylsulfonyl)piperidin-2-yl)methoxy)-N-((4-((dimethylamino)(3-fluorophenyl)methyl)cyclohexyl)methyl)acetamide], the inhibition at 10 µM in test [1] was 24%; in test [2] it was 23%.
On the same counts, the results for `CN(C)C(c1ccccc1)C1CCC(NC(=O)COCCN(C)S(=O)(=O)c2ccc(Cl)cc2Cl)CC1` (stereo not drawn) [Example 33, 2-(2-(2,4-dichloro-N-methylphenylsulfonamido)ethoxy)-N-(4-((dimethylamino)(phenyl)methyl)cyclohexyl)acetamide] are 77% and 9%.
Consider `COc1cc(C)c(S(=O)(=O)N2CCN(CCOCC(=O)NC3CCC(C(c4ccccc4)N(C)C)CC3)CC2)c(C)c1C` (stereo not drawn) [Example 20, N-(4-((dimethylamino)(phenyl)methyl)cyclohexyl)-2-(2-(4-(4-methoxy-2,3,6-trimethylphenylsulfonyl)piperazin-1-yl)ethoxy)acetamide], for which the inhibition at 10 µM was 101% in test [1] and -9% in test [2].
On the same counts, the results for `COc1cc(C)c(S(=O)(=O)N2CCC(CCOCC(=O)NCC3CCC(C(c4ccccc4)N(C)C)CC3)CC2)c(C)c1C` (stereo not drawn) [Example 146, N-((4-((dimethylamino)(phenyl)methyl)cyclohexyl)methyl)-2-(2-(1-(4-methoxy-2,3,6-trimethylphenylsulfonyl)piperidin-4-yl)ethoxy)acetamide] are 23% and 26%.
For `COc1ccc(S(=O)(=O)N2CCC(OCC(=O)NC3CCC(C(c4cccs4)N(C)C)CC3)C2)cc1OC` (stereo not drawn) [Example 155, 2-(1-(3,4-dimethoxyphenylsulfonyl)pyrrolidin-3-yloxy)-N-(4-((dimethylamino)(thiophen-2-yl)methyl)cyclohexyl)acetamide], the inhibition at 10 µM was -8% in test [1] and 1% in test [2].
Consider `COc1cc(C)c(S(=O)(=O)N2CCC(OCC(=O)NCC3CCC(C(c4ccccc4)N(C)C)CC3)CC2)c(C)c1C` (stereo not drawn) [Example 143, N-((4-((dimethylamino)(phenyl)methyl)cyclohexyl)methyl)-2-(1-(4-methoxy-2,3,6-trimethylphenylsulfonyl)piperidin-4-yloxy)acetamide], for which the figures for the inhibition at 10 µM in test [1] and in test [2] were 11% and 19%, respectively.
On the same counts, the results for `Cc1cc(C)c(S(=O)(=O)N2CCC(OCC(=O)NCC3CCC(C(c4cccs4)N(C)C)CC3)C2)c(C)c1` (stereo not drawn) [Example 27, N-((4-((dimethylamino)(thiophen-2-yl)methyl)cyclohexyl)methyl)-2-(1-(mesitylsulfonyl)pyrrolidin-3-yloxy)acetamide] are 60% and 60%.
Regarding `Cc1cc(C)c(S(=O)(=O)N2CCC(OCC(=O)NC3CCC(C(c4cccc(F)c4)N(C)C)CC3)C2)c(C)c1` (stereo not drawn) [Example 140, N-(4-((dimethylamino)(3-fluorophenyl)methyl)cyclohexyl)-2-(1-(mesitylsulfonyl)pyrrolidin-3-yloxy)acetamide], the inhibition at 10 µM was 43% in test [1] and 30% in test [2].

The values above are taken from US8106055B2, “Substituted amide compounds” (Gruenenthal GmbH, priority 2007, dated 2012).
